Data: the CheMixHub ionic liquid set
± gives the uncertainty stated by the source.

Assay: xn = mol fraction of the nth substance listed

CCn1cc[n+](C)c1.C[C@H](O)C(=O)[O-] + O
298.15 K, 100 kPa
Conditions | viscosity [mPa·s]
x2 = 0.3138 | 32.5 ± 0.3
x2 = 0.9696 | 1.82 ± 0.02

C[N+](C)(C)CCO.O=C([O-])c1cccnc1 + O
viscosity [mPa·s], 100 kPa
Conditions | x1 = 0.0008779 | x1 = 0.001474 | x1 = 0.00202 | x1 = 0.002696 | x1 = 0.00365 | x1 = 0.005797
293.15 K | 1.041 ± 0.022 | 1.065 ± 0.022 | 1.087 ± 0.023 | 1.115 ± 0.023 | 1.153 ± 0.024 | 1.238 ± 0.026
298.15 K | 0.928 ± 0.019 | 0.949 ± 0.02 | 0.968 ± 0.02 | 0.992 ± 0.021 | 1.025 ± 0.021 | 1.097 ± 0.023
303.15 K | 0.833 ± 0.017 | 0.852 ± 0.018 | 0.869 ± 0.018 | 0.889 ± 0.019 | 0.918 ± 0.019 | 0.98 ± 0.021
308.15 K | 0.752 ± 0.016 | 0.769 ± 0.016 | 0.784 ± 0.016 | 0.802 ± 0.017 | 0.827 ± 0.017 | 0.88 ± 0.018
313.15 K | 0.685 ± 0.014 | 0.7 ± 0.015 | 0.713 ± 0.015 | 0.729 ± 0.015 | 0.75 ± 0.016 | 0.796 ± 0.017

Cn1cc[n+](CCO)c1.[Cl-] + O
100 kPa
Conditions | electrical conductivity, 293.15 K [S/m] | electrical conductivity, 298.15 K [S/m] | electrical conductivity, 303.15 K [S/m] | electrical conductivity, 308.15 K [S/m] | electrical conductivity, 313.15 K [S/m] | viscosity, 293.15 K [mPa·s] | viscosity, 298.15 K [mPa·s] | viscosity, 303.15 K [mPa·s] | viscosity, 308.15 K [mPa·s] | viscosity, 313.15 K [mPa·s]
x1 = 3.478e-05 | 0.0241 ± 0.0077 | 0.0281 ± 0.0089 | 0.0319 ± 0.0097 | 0.036 ± 0.011 | 0.04 ± 0.012 | – | – | – | – | –
x1 = 5.784e-05 | 0.0382 ± 0.0072 | 0.0443 ± 0.0084 | 0.0496 ± 0.0093 | 0.056 ± 0.01 | 0.062 ± 0.011 | – | – | – | – | –
x1 = 9.73e-05 | 0.0597 ± 0.0068 | 0.0693 ± 0.0081 | 0.0776 ± 0.009 | 0.0866 ± 0.0097 | 0.095 ± 0.01 | 1.015 ± 0.021 | 0.904 ± 0.019 | 0.815 ± 0.017 | 0.738 ± 0.015 | 0.676 ± 0.014
x1 = 0.0001191 | 0.0701 ± 0.0057 | 0.082 ± 0.0067 | 0.0913 ± 0.0074 | 0.1 ± 0.0076 | 0.11 ± 0.0084 | – | – | – | – | –
x1 = 0.0001798 | 0.0949 ± 0.0058 | 0.111 ± 0.0068 | 0.123 ± 0.0075 | 0.133 ± 0.0079 | 0.146 ± 0.0086 | – | – | – | – | –
x1 = 0.0002349 | 0.117 ± 0.0059 | 0.136 ± 0.0068 | 0.151 ± 0.0074 | 0.163 ± 0.0078 | 0.178 ± 0.0085 | 1.023 ± 0.021 | 0.912 ± 0.019 | 0.826 ± 0.017 | 0.75 ± 0.016 | 0.69 ± 0.014
x1 = 0.0002827 | 0.133 ± 0.0057 | 0.154 ± 0.0065 | 0.171 ± 0.0071 | 0.183 ± 0.0078 | 0.2 ± 0.0082 | 1.025 ± 0.021 | 0.914 ± 0.019 | 0.829 ± 0.017 | 0.753 ± 0.016 | 0.694 ± 0.015
x1 = 0.0003387 | 0.15 ± 0.0058 | 0.173 ± 0.0067 | 0.192 ± 0.0076 | 0.209 ± 0.0081 | 0.224 ± 0.0087 | – | – | – | – | –
x1 = 0.0003943 | 0.165 ± 0.006 | 0.191 ± 0.0069 | 0.214 ± 0.0077 | 0.228 ± 0.0084 | 0.248 ± 0.0092 | 1.029 ± 0.021 | 0.92 ± 0.019 | 0.835 ± 0.017 | 0.76 ± 0.016 | 0.702 ± 0.015
x1 = 0.000458 | – | – | – | – | – | 1.032 ± 0.021 | 0.922 ± 0.019 | 0.838 ± 0.017 | 0.764 ± 0.016 | 0.706 ± 0.015
x1 = 0.0005686 | – | – | – | – | – | 1.036 ± 0.022 | 0.926 ± 0.019 | 0.844 ± 0.018 | 0.77 ± 0.016 | 0.713 ± 0.015
x1 = 0.0007379 | – | – | – | – | – | 1.041 ± 0.022 | 0.933 ± 0.019 | 0.851 ± 0.018 | 0.778 ± 0.016 | 0.722 ± 0.015
x1 = 0.0009513 | – | – | – | – | – | 1.048 ± 0.022 | 0.94 ± 0.02 | 0.86 ± 0.018 | 0.787 ± 0.016 | 0.732 ± 0.015
x1 = 0.001272 | – | – | – | – | – | 1.056 ± 0.022 | 0.949 ± 0.02 | 0.872 ± 0.018 | 0.799 ± 0.017 | 0.746 ± 0.016
x1 = 0.001562 | – | – | – | – | – | 1.063 ± 0.022 | 0.957 ± 0.02 | 0.882 ± 0.018 | 0.809 ± 0.017 | 0.757 ± 0.016

C[S+](C)C.O=S(=O)([N-]S(=O)(=O)C(F)(F)F)C(F)(F)F + O=C1CCCO1
Conditions | electrical conductivity [S/m]
298.15 K, 101 kPa, x2 = 0.92 | 1.57 ± 0.063

CCCC[N+](C)(C)C.O=S(=O)([N-]S(=O)(=O)C(F)(F)F)C(F)(F)F + O=S(=O)([N-]S(=O)(=O)C(F)(F)F)C(F)(F)F.[Li+] + O
viscosity [mPa·s], 100 kPa
Conditions | 293.15 K | 298.15 K | 303.15 K | 313.15 K | 323.15 K | 333.15 K | 343.15 K | 353.15 K | 363.15 K
x2 = 0.2745, x1 = 0.2745 | 100 ± 10 | 78 ± 7.9 | 59 ± 5.9 | 38.1 ± 3.8 | 26.5 ± 2.7 | 19 ± 1.9 | 14.2 ± 1.4 | 10.9 ± 1.1 | 8.61 ± 0.87
x2 = 0.3106, x1 = 0.2745 | 150 ± 16 | 115 ± 12 | 88.9 ± 9.1 | 53.9 ± 5.4 | 35.5 ± 3.6 | 24.7 ± 2.5 | 18.1 ± 1.8 | 13.7 ± 1.4 | 10.6 ± 1.1
x2 = 0.3509, x1 = 0.2745 | 264 ± 30 | 192 ± 21 | 145 ± 15 | 87.4 ± 8.9 | 51 ± 5.1 | 34.7 ± 3.5 | 24.6 ± 2.5 | 18.2 ± 1.8 | 13.9 ± 1.4
x2 = 0.3868, x1 = 0.2745 | 341 ± 40 | 245 ± 28 | 182 ± 20 | 106 ± 11 | 65.4 ± 6.6 | 43.1 ± 4.3 | 30.1 ± 3 | 21.3 ± 2.1 | 16.5 ± 1.7
x2 = 0.4308, x1 = 0.2745 | 494 ± 61 | 401 ± 48 | 289 ± 33 | 162 ± 17 | 99 ± 10 | 58.8 ± 5.9 | 40.6 ± 4.1 | 28.8 ± 2.9 | 21.2 ± 2.1
